Earlier results, collected in patent publication US20120082623A1, “SHH Regulation and Methods Thereof” (priority 2009, published 2012).

Test system: SVZ derived EGFR+ cells
Conditions: neurospheres, dose dependent manner; cited from earlier work

## NCCc1ccc(O)c(O)c1 [dopamine]
  proliferation of SVZ derived EGFR+ cells: increased the proliferation of SVZ derived EGFR+ cells
